What was measured:
[1] = system: cabbage looper (Trichoplusia ni [Hubner]); test: Foliar spray test on pinto bean plants, cabbage looper, 96 hour exposure; type: in vivo; settings: rate of application 100 ppm, dead plus moribund insects, * = average of more than one test
Description: (§1) Candidate insecticides with high pl50 values from the diet test were tested for insecticidal activity in foliar evaluations against tobacco budworm, beet armyworm (Spodoptera exigua [Hubner]), and cabbage looper (Trichoplusia ni [Hubner])
(§2) In these tests against tobacco budworm and beet armyworm, nine-day-old chick pea plants (Cicer arietinum) were sprayed at 20 psi to runoff on both upper and lower leaf surfaces with solutions of test chemical to provide application rates as high as 1000 ppm of test chemical. The solvent used to prepare the solutions of test chemical was 10% acetone or methanol (v/v) and 0.1% of the surfactant octylphenoxypolyethoxyethanol in distilled water. Four replicates, each containing one chick pea plant, for each rate of application of test chemical were sprayed. The treated plants were transferred to a hood, where they were kept until the spray had dried.
(§3) The four chick pea plants for each replicate treated with test chemical as described above were removed from their pots by cutting the stems just above the soil line. The excised leaves and stems from the four plants in each replicate were placed in individual 8-ounce paper cups, each containing a moistened filter paper. Five second-instar (6 days old) tobacco budworms or beet armyworms (7-8 days old) were counted into each cup, taking care not to cause injury. An opaque plastic lid was placed on each cup, which was then held in a growth chamber for a 96 hour exposure period at 25°C and 50% relative humidity. At the end of the 96 hour exposure period the cups were opened, and the numbers of dead, moribund, and live insects were counted. Using the insect counts, the efficacy of the test chemical was expressed in percent control. Percent control is derived from the total number of dead insects (TD) plus the total number of moribund insects (TM) as compared to the total number of insects (TI) in the test: % Control =(TD+TM)/(TI)x 100 [formula]
(§4) The condition of the test plants was also observed for phytotoxicity and for reduction of feeding damage as compared to an untreated control.
Foliar tests with cabbage looper were conducted in the same manner as described above, the difference being that pinto bean plants (Phaseolus vulgaris) were used in place of chick pea plants.

[2] = system: tobacco budworm (Heliothis virescens [Fabricius]); test: Diet test: test chemical incorporated into artificial diet of tobacco budworm larvae, 5-day exposure; type: in vivo; settings: for IC50 / LC50 / mortality at 100 µM / pest or weed control at 100 µM: Heliothis virescens, 120 h; for IC50 / pl50: negative log of the concentration that provides 50% growth inhibition, by linear regression; for IC50 / LC50 / pl50 / Percent Growth Inhibition / pest or weed control at 100 µM: 5 days, * = average of more than one test; for IC50: read-out: pl50 (converted); for LC50: negative log of the concentration that provides 50% mortality, read-out: pLC50 (converted); for mortality at 100 µM / pest or weed control at 100 µM: feed or water; for mortality at 100 µM: read-out: Percent Mortality; for Percent Growth Inhibition / pest or weed control at 100 µM: rate of application 4 (negative log of molar concentration in the diet), second instar larvae, 25°C; for pest or weed control at 100 µM: read-out: Percent Growth Inhibition
Description: Candidate insecticides were incorporated into an artificial diet for evaluation of insecticidal activity against the tobacco budworm (Heliothis virescens [Fabricius]) in the following manner. Stock solutions of test chemical in dimethyl sulfoxide, ranging from […], were prepared for each rate of application. One hundred microliters of each of the stock solutions was manually stirred into 50 mL of a molten (65-70°C) wheat germ-based artificial diet. The 50 mL of molten diet containing the test chemical was poured evenly into twenty wells in the outer two rows on each side of a twenty-five well, five row plastic tray. (Each well in the tray was about 1 cm in depth, with an opening of 3 cm by 4 cm at the lip.) Molten diet containing only dimethyl sulfoxide at the levels used in the test chemical-treated diet was poured into the five wells in the third (center) row of the tray. Each tray therefore contained one test chemical at a single rate of application, together with an untreated control. The rates of application, expressed as the negative log of the molar concentration, and the corresponding concentrations of the stock solution prepared for each rate are shown below:
Single second instar tobacco budworm larvae, selected at a stage of growth at which they uniformly weigh about 5 mg each, were placed in each well. Upon completion of infestation, a sheet of clear plastic was heat-sealed over the top of the tray by use of a common household flat.iron. The trays were held at 25°C at 60% relative humidity for five days in a growth chamber. Lighting was set at 14 hours of light and 10 hours of darkness. After the 5-day exposure period, mortality counts were taken, and the surviving insects were weighed. From the weights of the surviving insects that fed on the treated diet as compared to those insects that fed on the untreated diet, the percent growth inhibition caused by each test chemical was determined. […] Also, where possible, the negative log of the concentration of the test chemical that provided 50% mortality (pLC50) was determined.

[3] = system: beet armyworm (Spodoptera exigua [Hubner]); test: Foliar spray test on chick pea plants, beet armyworm, 96 hour exposure; type: in vivo; settings: rate of application 100 ppm, dead plus moribund insects, * = average of more than one test
Description: as §1, §2, §3, §4

[4] = system: tobacco budworm (Heliothis veriscens [Fabricius]); test: Foliar spray test on chick pea plants, tobacco budworm, 96 hour exposure; type: in vivo, Heliothis virescens; settings: rate of application 100 ppm, dead plus moribund insects, * = average of more than one test
Description: as §1, §2, §3, §4

`CCn1nnc(-c2ccc(CN3CCC(C(O)(c4ccc(C(F)(F)F)cc4)c4ccc(C(F)(F)F)cc4)CC3)cc2)n1` [Compound 33] was tested, and the “Percent Control CL” value [1] was 95%, the IC50 [2] was ≤ 0.316 µM and the LC50 [2] was 0.794 µM. The mortality at 100 µM [2] was 100%, the pl50 [2] was 6.6 and the “Percent Growth Inhibition” value [2] was 99%. For the same compound, the “Percent Control BAW” value [3] was 100% and the “Percent Control TBW” value [4] was 100%.

`Cn1ccc(-c2ccc(CN3CCC(C(O)(c4ccc(OC(F)(F)F)cc4)c4ccc(OC(F)(F)F)cc4)CC3)cc2)c1` [Compound 4] showed a mortality at 100 µM [2] of 100%.

With `CCn1nnc(-c2ccc(CN3CCC(C(O)(c4ccc(C(F)(F)F)cn4)c4ccc(C(F)(F)F)cn4)CC3)cc2)n1` [Compound 104] the IC50 [2] was ≤ 0.316 µM, the LC50 [2] was 0.398 µM and the mortality at 100 µM [2] was 100%. The pl50 [2] was 6.8 and the “Percent Growth Inhibition” value [2] was 100%.

`[O-][N+]1(Cc2ccc(-c3ncccn3)cc2)CCC(C(O)(c2ccc(C(F)(F)F)cc2)c2ccc(C(F)(F)F)cc2)CC1` (stereo not shown) [Compound 101] showed a mortality at 100 µM [2] of 100%.

For `O=C1OCCN1c1ccc(CN2CCC(C(O)(c3ccc(C(F)(F)F)cc3)c3ccc(C(F)(F)F)cc3)CC2)cc1` [Compound 20], the mortality at 100 µM [2] was 10%.

`OC(c1ccc(C(F)(F)F)cc1)(c1ccc(C(F)(F)F)cc1)C1CCN(Cc2ccc(Oc3ccc(C(F)(F)F)cn3)cc2)CC1` [Compound 70] showed a mortality at 100 µM [2] of 100%.

Compound `[O-][n+]1ccccc1Oc1ccc(C[N+]2([O-])CCC(C(O)(c3ccc(C(F)(F)F)cc3)c3ccc(C(F)(F)F)cc3)CC2)cc1` (stereo not shown) [Compound 56] has a mortality at 100 µM [2] of 100%.

Compound `Cc1ccnc(Oc2ccc(CN3CCC(C(O)(c4ccc(C(F)(F)F)cc4)c4ccc(C(F)(F)F)cc4)CC3)cc2)c1` [Compound 62] has an IC50 [2] of 0.631 µM, an LC50 [2] of 6.31 µM and a mortality at 100 µM [2] of 100%. The “Percent Growth Inhibition” value [2] was 100%.

In the case of `CC(=O)Nc1ccc(CN2CCC(C(O)(c3ccc(OC(F)(F)F)cc3)c3ccc(OC(F)(F)F)cc3)CC2)cc1` [Compound 3, N-[4-(methylcarbonylamino)phenylmethyl]-4-[bis(4-trifluoromethoxyphenyl)hydroxymethyl]piperidine], the IC50 [2] was 20 µM, the mortality at 100 µM [2] was 0% and the pest or weed control at 100 µM [2] was 95%.

In the case of `OC(c1ccc(C(F)(F)F)cc1)(c1ccc(C(F)(F)F)cc1)C1CCN(Cc2ccc(-c3nnn(C(F)F)n3)cc2)CC1` [Compound 38], the IC50 [2] was 0.631 µM, the LC50 [2] was 2.51 µM and the mortality at 100 µM [2] was 100%. The “Percent Growth Inhibition” value [2] was 100%.

Compound `N#Cc1ccc(Oc2ccc(C[N+]3([O-])CCC(C(O)(c4ccc(C(F)(F)F)cc4)c4ccc(C(F)(F)F)cc4)CC3)cc2)nc1` (stereo not shown) [Compound 73] has a mortality at 100 µM [2] of 100%.

Compound `[O-][N+]1(Cc2ccc(-c3ccccn3)cc2)CCC(C(O)(c2ccc(C(F)(F)F)cc2)c2ccc(C(F)(F)F)cc2)CC1` (stereo not shown) [Compound 44] has a mortality at 100 µM [2] of 100%.

Work on `Cc1cccc(Oc2ccc(CN3CCC(C(O)(c4ccc(C(F)(F)F)cc4)c4ccc(C(F)(F)F)cc4)CC3)cc2)n1` [Compound 75] yielded a mortality at 100 µM [2] of 100%.

With `Cc1ccc[n+]([O-])c1Oc1ccc(CN2CCC(C(O)(c3ccc(C(F)(F)F)cc3)c3ccc(C(F)(F)F)cc3)CC2)cc1` [Compound 59] the mortality at 100 µM [2] was 100%.

`Cc1cc(C)n(-c2ccc(CN3CCC(C(O)(c4ccc(OC(F)(F)F)cc4)c4ccc(OC(F)(F)F)cc4)CC3)cc2)n1` [Compound 5] was tested, and the mortality at 100 µM [2] was 100%.

Work on `CC(Oc1ccc(CN2CCC(C(O)(c3ccc(C(F)(F)F)cc3)c3ccc(C(F)(F)F)cc3)CC2)cc1)c1ccccn1` (stereo not shown) [Compound 83] yielded an IC50 [2] of 1 µM, an LC50 [2] of 31.6 µM and a mortality at 100 µM [2] of 100%. For the same compound, the “Percent Growth Inhibition” value [2] was 100%.

`[O-][N+]1(Cc2ccc(Oc3ncccc3C(F)(F)F)cc2)CCC(C(O)(c2ccc(C(F)(F)F)cc2)c2ccc(C(F)(F)F)cc2)CC1` (stereo not shown) [Compound 61] showed a mortality at 100 µM [2] of 100%.

Compound `OC(c1ccc(C(F)(F)F)cc1)(c1ccc(C(F)(F)F)cc1)C1CCN(Cc2ccc(Oc3ccc(Cl)cn3)cc2)CC1` [Compound 66] has a mortality at 100 µM [2] of 100%.

`Cc1cccnc1Oc1ccc(CN2CCC(C(O)(c3ccc(C(F)(F)F)cc3)c3ccc(C(F)(F)F)cc3)CC2)cc1` [Compound 57] was tested, and the IC50 [2] was 0.794 µM, the LC50 [2] was 7.94 µM and the mortality at 100 µM [2] was 100%. For the same compound, the “Percent Growth Inhibition” value [2] was 100%.

Compound `OC(c1ccc(C(F)(F)F)cc1)(c1ccc(C(F)(F)F)cc1)C1CCN(Cc2ccc(Oc3ncccc3C(F)(F)F)cc2)CC1` [Compound 60] has a mortality at 100 µM [2] of 100%.

Compound `CC(Oc1ccc(C[N+]2([O-])CCC(C(O)(c3ccc(C(F)(F)F)cc3)c3ccc(C(F)(F)F)cc3)CC2)cc1)c1ccccn1` (stereo not shown) [Compound 84] has a mortality at 100 µM [2] of 100%.

Work on `OC(c1ccc(C(F)(F)F)cc1)(c1ccc(C(F)(F)F)cc1)C1CCN(Cc2ccc(-c3ncccn3)cc2)CC1` [Compound 100] yielded a mortality at 100 µM [2] of 100%.

In the case of `OC(c1ccc(C(F)(F)F)cc1)(c1ccc(C(F)(F)F)cc1)C1CCN(Cc2ccc(Oc3ccccn3)cc2)CC1` [Compound 53], the mortality at 100 µM [2] was 100%.

`Cc1cccc(-c2ccc(C[N+]3([O-])CCC(C(O)(c4ccc(C(F)(F)F)cc4)c4ccc(C(F)(F)F)cc4)CC3)cc2)n1` (stereo not shown) [Compound 50] gave a mortality at 100 µM [2] of 100%.

Compound `OC(c1ccc(C(F)(F)F)cc1)(c1ccc(C(F)(F)F)cc1)C1CCN(Cc2ccc(-c3nnn(CCCF)n3)cc2)CC1` [Compound 40] has an IC50 [2] of 0.631 µM, an LC50 [2] of 3.98 µM and a mortality at 100 µM [2] of 100%. The “Percent Growth Inhibition” value [2] was 100%.

`OC(c1ccc(OC(F)(F)F)cc1)(c1ccc(OC(F)(F)F)cc1)C1CCN(Cc2ccc(-c3csnn3)cc2)CC1` [Compound 14] gave an IC50 [2] of 3.16 µM, an LC50 [2] of 31.6 µM and a mortality at 100 µM [2] of 100%. For the same compound, the “Percent Growth Inhibition” value [2] was 99%.

Compound `[O-][N+]1(Cc2ccc(Oc3ccccn3)cc2)CCC(C(O)(c2ccc(C(F)(F)F)cc2)c2ccc(C(F)(F)F)cc2)CC1` (stereo not shown) [Compound 54] has a mortality at 100 µM [2] of 100%.

`[O-][N+]1(Cc2ccc(-c3ccc(Cl)cn3)cc2)CCC(C(O)(c2ccc(C(F)(F)F)cc2)c2ccc(C(F)(F)F)cc2)CC1` (stereo not shown) [Compound 48] showed a mortality at 100 µM [2] of 85%.

With `Cn1nnnc1-c1ccc(CN2CCC(C(O)(c3ccc(OC(F)(F)F)cc3)c3ccc(OC(F)(F)F)cc3)CC2)cc1` [Compound 8, N-[4-(1-methyltetrazol-5-yl)phenylmethyl]-4-[bis(4-trifluoromethoxyphenyl)hydroxymethyl]piperidine] the IC50 [2] was 31.6 µM, the mortality at 100 µM [2] was 0% and the pest or weed control at 100 µM [2] was 79%.

Work on `[O-][n+]1ccccc1Oc1ccc(CN2CCC(C(O)(c3ccc(C(F)(F)F)cc3)c3ccc(C(F)(F)F)cc3)CC2)cc1` [Compound 55] yielded an IC50 [2] of 3.16 µM, an LC50 [2] of 79.4 µM and a mortality at 100 µM [2] of 55%. The “Percent Growth Inhibition” value [2] was 100%.

In the case of `CC1CN(C(=O)c2ccc(CN3CCC(C(O)(c4ccc(C(F)(F)F)cc4)c4ccc(C(F)(F)F)cc4)CC3)cc2)C(=O)O1` (stereo not shown) [Compound 24], the IC50 [2] was 31.6 µM, the LC50 [2] was > 316 µM and the mortality at 100 µM [2] was 0%. The “Percent Growth Inhibition” value [2] was 86%.

From EP0844825B1, “INSECTICIDAL N-(SUBSTITUTED ARYLMETHYL)-4- BIS(SUBSTITUTED PHENYL OR PYRIDYL)METHYL]PIPERIDINES” (FMC CORPORATION, priority 1995, dated 1996)
